For one molecule, EC50 results are on record in article PMC11963983 (2025).

The subject of this assay is ΔSite1-PK-riboCdA (RNA, riboswitch) GGGAAGACAAACAUGCCGAAUCCGAAAGGUACCGAGGAACCGCUUUUUGGCGCUAAUCUGCUGUGAAGCAGCAGUAGGGAUACCUUCUGUCCCGCGCGCGACAGCUAACUCGGGAGGGCAUAAAGGAAGGAGAUUUGCAGUG
The assay can be described thus: smFRET, high-FRET. The following applies: 50 mM Na+, 0.75 mM Mg2+; 10 mM Tris-HCl pH 8.0, room temperature.

For `Nc1ncnc2c1ncn2[C@@H]1O[C@@H]2COP(=O)(O)O[C@H]3[C@@H](O)[C@H](n4cnc5c(N)ncnc54)O[C@@H]3COP(=O)(O)O[C@H]2[C@H]1O`, the EC50 was ~ 78.9 μM.
